Reference: patent US20160361314A1, “COMBINATION OF AN ALK INHIBITOR AND A CDK INHIBITOR FOR THE TREATMENT OF CELL PROLIFERATIVE DISEASES” (NOVARTIS AG, priority 2013, published 2016)
Read-outs that look alike come from different tables or passages of the source.

Tests used:
[1] = tested on: human neuroblastoma SH-SY5Y (F1174L ALK mutation) xenografts; conditions: CB17 SCID mice; A1 50 mg/kg, B 250 mg/kg reduced to 187.5 mg/kg on day 5; p.o. gavage
Procedure: Enhancement of efficacy studies were conducted in vivo on CB17 SCID mice against human neuroblastoma SH-SY5Y (bearing an F1174L ALK mutation) xenografts.
CB17 scid female mice (Taconic Farms) were used to propagate subcutaneously implanted neuroblastoma tumors. Tumor diameters were measured twice per week with electronic calipers, and tumor volumes were calculated with the spheroid formula, (p/6)×d3, where d represents mean diameter. […] Mice were euthanized when tumor volume exceeded 3000 mm^3 or at the study conclusion at 7 weeks. A mixed-effects linear model was used to assess tumor volume over time between treatment and vehicle groups, controlling for tumor size at enrollment. Event-free survival probabilities were estimated using the Kaplan-Meier method and survival curves were compared using the log-rank test (SAS 9.3 and Stata 12.1). An event was defined as time to tumor volume ≧3000 mm^3, and tumor volumes after week 7 were censored. Mice were maintained under protocols and conditions approved by our institutional animal care and use committee.

[2] = tested on: SKBE2C neuroblastoma cells (WT); test: xCELLigence in vitro growth inhibition (IC50, Dm); assay type: cell-based; conditions: Homo sapiens, Neuroblastoma cell, single agent
Procedure: In vitro inhibitory activity was determined in five (5) neuroblastoma cell lines with a 96-well Real-Time Cell Electronic Sensing xCELLigence system (ACEA, San Diego, Calif.) which measures a “cell index”. Cell index is derived from alterations in electrical impedance as cells interact with the biocompatible microelectrode surface in each well to measure substrate adherent proliferation. Depending on the growth kinetics, the following cell densities were plated per well: NB1643: 20,000; SHSY5Y: 6,000; SKBE2C:10,000; NBEBC1: 11,000; NB1691: 30,000. After 24 hours, the plated cells were treated in triplicate with the test compound, each dose as indicated or with DMSO vehicle control. […] At 72 hours after drug exposure, the cell index was recorded.
The IC50 was calculated using GraphPad Prism 5.0 four parameter variable slope fitting.
Drug combination effects and quantification of synergy were determined using the Chou-Talalay combination index method (Trends Pharmacol Sci 4, 450-454) and CalcuSyn v2 software (Biosoft, MO) in four neuroblastoma cell lines. Cells were plated and in vitro proliferation was measured using the xCELLigence system as described above.
The anti-proliferation potency of each individual agent was estimated by the median-effect dose, Dm. […] Fa=0 is determined based on DMSO control by the dose, and Fa=1 is a full response (no viable cells left) and. • Fu: fraction unaffected by dose where fu=1−fa.

[3] = tested on: NB1643 (R1275Q) human neuroblastoma cells; test: ApoTox-Glo Triplex assay, viability and caspase 3/7 apoptosis; assay type: cell-based; conditions: 72 hours, 1/4 to 4 times IC50, equipotent ratio
Procedure: The effect of treatment with the combinations of the invention on cell viability and apoptosis were evaluated in three human neuroblastoma cell lines: NB1643 (R1275Q), SH-SY5Y (F1174L) and EBC1 (WT) using the ApoTox-Glo Triplex assay. For confirmation, the treatment effect on cell viability was also evaluated in NB1643 (R1275Q) using the CellTitre-Glo (CTG) Luminescent Cell Viability assay. The assays were described, infra.
The test mixtures were evaluated by 72 hours after dosing, and the results were plotted in FIGS. 11A-C, 12A-C, 13A-C and 14A-C.
In vitro cell viability and Caspase-Glo 3/7 were simultaneously assayed using the ApoTox-Glo Triplex Assay (Promega, Calif.) in three neuroblastoma cell lines. […] After 72 hours of drug exposure, the fluorogenic substrate GF-AFC was added. The test mixture was incubated for 10 minutes and AFC fluorescence was measured at 380-400nm excitation and 505 nm emission.
Following measurement of live cell fluorescence, a luminogenic Caspase-Glo 3/7 substrate and luciferase was added to the same wells. Luminescence was measured after a 30 minutes incubation period. Luciferin is released following cleavage of the substrate by caspase-3/7, and thereby the luminescent signal is proportional to caspase activity.

[4] = tested on: NB1691 neuroblastoma cells (WT); test: xCELLigence in vitro growth inhibition and Chou-Talalay combination index; assay type: cell-based; conditions: Homo sapiens
[5] = tested on: NB-1643 human neuroblastoma cells; test: Loewe additivity (CHALICE) synergy screen, CellTiter-Glo viability, 7x7 dose matrix; assay type: cell-based; conditions: NB-1643 (R1275Q), Table 2; for Max Combo Effect: in % (unit assumed)
Procedure: The synergistic interaction of drug combinations were assessed based on the Loewe Additivity Model using Chalice software [CombinatoRx, Cambridge Mass.]). […] 27:659-66. The software compares the response (% inhibition or % reduction of cell viability) of drug treatment from a combination of two agents to the response of the agents acting alone, against the drug-with-itself dose-additive reference model (the Loewe Additivity Model). Deviations from dose additives can be assessed numerically with a “synergy score” which quantifies the overall strength of combination effect. A synergy score >0 indicates a synergistic combination. In order to ensure only strongly synergistic combinations were selected, the acceptance criteria were set at a higher level. Strongly synergistic combinations were defined as having both a synergy score >2, a synergy score that is twice as large as the background (non-synergy) model would predict, and a maximum efficacy of >100, a value equivalent to stasis, as determined from the growth inhibition calculation.
After treatment, cell viabilty (quantity of viable cells) for each test mixtures were determined by the CellTiter-Glo® (CTG) luminescent cell viability assay (Promega) described in the Assay section, infra. […] The response to treatment (% reduction of cell viability) was analyzed using Chalice software [CombinatoRx, Cambridge Mass.]). Data evaluation and graph generation were performed using Microsoft Excel software and Chalice software.
The combinations were tested in duplicate using a 7×7 dose matrix block in 1536 well format with a cell proliferation readout as described in the Assay section infra.
All synergy calculations were performed using CHALICE software package from Zalicus and potential synergistic interactions between compound combinations were assessed using the Excess Inhibition 2D matrix according to the Loewe additivity model and were reported as synergy score (Table 10) (Lehar et al). Strongly synergistic combination were identified as having both (1) a synergy score greater than 2, a synergy score that is twice as large as the background (non-synergy) model would predict, and (2) a maximum efficacy of >100, a value roughly equivalent to stasis, as determined from the growth inhibition calculation.
Cell viability were determined by measuring cellular ATP content using the CellTiter-Glo® (CTG) luminescent cell viability assay (Promega). […] Reduced and enhanced luminescent signal values (responses) were calculated relative to untreated (control) cells, and the calculated signal value proportional to the cell viability.
Synergistic combinations were identified based on the Loewe Addivity Model. […]

[6] = tested on: NBEBC1 neuroblastoma cells (WT); test: xCELLigence in vitro growth inhibition and Chou-Talalay combination index; assay type: cell-based; conditions: Homo sapiens, Neuroblastoma cell, single agent
[7] = tested on: SH-SY5Y (F1174L) human neuroblastoma cells; test: Cell morphology and cell death by optical microscopy; assay type: cell-based; conditions: each compound at its IC50, 72 hours after treatment
Text: Synergistic anti-proliferative effect of the combination of our invention was visualized by optical microscopy. […] Seventy-two hours after treatment, the treated samples were compared to the untreated samples (vehicle) by optical microscopy and recorded in micrographs (FIGS. 10A to D).

[8] = read-out: Dm (median-effect dose)
[9] = NB-1691, 72 hours, single agent, read-out: IC50
[10] = NB-1691, single agent, read-out: Dm (median-effect dose)

SMILES | Survival of the mice / deaths [1] | Tumor volume / tumor growth [1] | IC50 ([2]; 72 hours, read-out: IC50) [nM] | IC50 [2, 8] [nM] | Cell viability (cell death) and apoptosis [3] | IC50 [4, 9] [nM] | IC50 [4, 10] [nM] | Synergy score (Mean) [5] | Max Combo Effect [5] | IC50 ([6]; 72 hours, read-out: IC50) [nM] | IC50 [6, 8] [nM] | Intact cells and cell morphology by micrograph [7]
CN(C)C(=O)c1cc2cnc(Nc3ccc(N4CCNCC4)cn3)nc2n1C1CCCC1 [Compound B, 7-cyclopentyl-N,N-dimethyl-2-((5-(piperazin-1-yl)pyridin-2-yl)amino)-7H-pyrrolo[2,3-d]pyrimidine-6-carboxamide] | one of the mice died on day 14 | slower tumor growth | 146 | 446 | only slightly effective | 315 | 2650 | 0.929 | 76.4 | 328 | 1260 | minimal effect in cell numbers and cell morphology
Cc1cc(Nc2ncc(Cl)c(Nc3ccccc3S(=O)(=O)C(C)C)n2)c(OC(C)C)cc1C1CCNCC1 [Compound A1, 5-chloro-N2-(2-isopropoxy-5-methyl-4-(piperidin-4-yl)phenyl)-N4-[2-(propane-2-sulfonyl)-phenyl]-pyrimidine-2,4-diamine] | euthanized due to the size of their tumor | only a slight tumor growth delay compared to vehicle control | 603 | 350 | effective in causing cell death and apoptosis | 1930 | 762 | 1.231 | 151.1 | 1920 | 1660 | significant reduction in the number of intact cells
